Measured values published in article PMC6405842, “Identification of a novel scaffold for a small molecule GPR139 receptor agonist” (Scientific Reports, 2019).
Where two headings read alike, the source gives them in different places.

Target: T1, GPR139 (Homo sapiens, UniProt Q6DWJ6)
T1 construct: host or cells: CHO-k1
T1 sequence (Q6DWJ6 1-353): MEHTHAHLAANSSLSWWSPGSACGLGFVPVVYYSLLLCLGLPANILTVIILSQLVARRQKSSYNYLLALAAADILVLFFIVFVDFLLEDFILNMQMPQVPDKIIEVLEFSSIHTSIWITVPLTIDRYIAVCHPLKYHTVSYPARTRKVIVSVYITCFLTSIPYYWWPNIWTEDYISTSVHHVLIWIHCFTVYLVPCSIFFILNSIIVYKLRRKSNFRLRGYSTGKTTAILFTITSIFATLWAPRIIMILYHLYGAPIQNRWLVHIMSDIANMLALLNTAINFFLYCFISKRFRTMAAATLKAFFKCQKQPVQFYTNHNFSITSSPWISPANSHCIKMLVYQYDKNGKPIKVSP
Assay: Fluo-4 calcium mobilization assay, agonist mode, concentration-response curves in CHO-GPR139 cells
Format: cell-based
Details: for Emax: efficacy normalized to compound 1a
Protocol: All compounds were tested on a CHO-k1 cell line stably expressing GPR139 (CHO-GPR139)[11] kindly provided by H. Lundbeck A/S, Denmark. GPR139-specific responses were assessed using a CHO-k1 cell line stably expressing the muscarinic acetylcholine receptor M1 (CHO-M1) (The Missouri S&T cDNA Resource Center, # CEM100TN00). The CHO-GPR139 cells were grown in Dulbecco’s modified Eagle’s medium (DMEM) F12-Kaighn’s (ThermoFisher Scientific # 21127) supplemented with 10% dialyzed fetal bovine serum (United States origin; ThermoFisher Scientific # 26400), 1% GlutaMAX-I (100X) (ThermoFisher Scientific # 35050061), and 100 units/mL penicillin and 100 µg/mL streptomycin (ThermoFisher Scientific # 15140122) and 1 mg/mL geneticin (ThermoFisher Scientific # 11811031). The CHO-M1 cells were grown in Ham’s F12 (ThermoFisher Scientific # 21765) supplemented with 10% fetal bovine serum (South American origin; ThermoFisher Scientific # 10270) + 100 units/mL penicillin and streptomycin and 0.25 mg/mL geneticin.
The Fluo-4 Ca^2+-assay was performed as described previously, with minor modifications. After 1 hour incubation with the Fluo-4 dye, the CHO-GPR139 cells were washed with 100 μL HEPES buffer (Hank’s Balanced Salt Solution (HBBS, ThermoFisher Scientific # 14175053) supplemented with 20 mM HEPES, 1 mM MgCl2, 1 mM CaCl2, pH = 7.4) and the compound library was then added in concentrations between 25–63 μM dissolved in HEPES buffer (supplemented with 2.5 mM probenecid and 1% DMSO) and pre-incubated for 10 min at 37 °C. 33 μL of 3.2 μM 1a were added automatically after baseline measurements. […] This set-up allowed us to identify both antagonists and agonists (Fig. 2).
Each compound, for which a concentration response curve was made, was tested at least three times in duplicate measurements. After the incubation with the Fluo-4 dye and a wash, 100 μL HEPES buffer (supplemented with 2.5 mM probenecid) was added to each well and incubated for 10 minutes at 37 °C before recording. 33 μL of compounds (4× concentrated) were added automatically after baseline measurements.
The Ca^2+ and ERK responses were normalized as indicated and the concentration response curves were fitted by Prism 6 software (GraphPad) using nonlinear regression in a sigmoidal model with variable slope, as has been previously described.

[1] = calcium mobilization assay, GPR139, values printed with a minus sign, read-out: pEC50 ± SEM (converted)
[2] = CHO-GPR139 cells, at least three independent concentration-response curves in duplicate, read-out: EC50
[3] = CHO-GPR139 cells, normalized to buffer (0%) and 8 μM 1a (100%)
[4] = Table S1, 11 primary screen hits
[5] = Table S1, 11 primary screen hits, read-out: EC50
[6] = Table S1, normalized to compound 1a

pEC50 ± S.E.M. (CHO-GPR139 cells)	EC50 [2]	Emax ± S.E.M. [3]	SMILES	also measured
6.41 ± 0.12	390 nM	112 ± 5%	C=CCN(CC=C)C(=O)CN1C(=O)NC(C)(c2ccc3c(c2)OCO3)C1=O (centres unmarked) [AC7]	–
6.01 ± 0.03	990 nM	67 ± 6%	Cc1ccc(C(=O)CN2C(=O)NC(C)(c3ccc4c(c3)OCO4)C2=O)cc1 (centres unmarked) [AC136]	–
6.27 ± 0.08	540 nM	92 ± 3%	COc1ccc(OC)c(C(=O)CN2C(=O)NC(C)(c3ccc4c(c3)OCO4)C2=O)c1 (centres unmarked) [AC137]	–
6.10 ± 0.14	790 nM	100 ± 5%	COc1ccc(C(=O)CN2C(=O)NC(C)(c3ccc4c(c3)OCO4)C2=O)cc1OC (centres unmarked) [AC138]	–
6.39 ± 0.12	410 nM	89 ± 5%	CC1CC(C)CN(C(=O)CN2C(=O)NC(C)(c3cccc4ccccc34)C2=O)C1 (centres unmarked) [AC186]	–
6.13 ± 0.22	740 nM	102 ± 5%	CC1(c2cccc3ccccc23)NC(=O)N(CC(=O)N2CCCCCC2)C1=O (centres unmarked) [AC187]	–
6.46 ± 0.16	350 nM	99 ± 2%	CC1(c2ccc3c(c2)OCCO3)NC(=O)N(CC(=O)c2ccc[nH]2)C1=O (centres unmarked) [AC191]	–
6.12 ± 0.13	750 nM	95 ± 1%	CC1(c2ccc3c(c2)OCO3)NC(=O)N(CC(=O)N2CCCCC2)C1=O (centres unmarked) [AC192]	–
6.34 ± 0.11	460 nM	111 ± 5%	CC1(c2ccc3c(c2)OCCO3)NC(=O)N(CC(=O)c2c[nH]c3ccccc23)C1=O (centres unmarked) [AC200]	–
6.47 ± 0.09	340 nM	102 ± 2%	CC1(c2ccc3c(c2)OCO3)NC(=O)N(CC(=O)N2CCCc3ccccc32)C1=O (centres unmarked) [AC202]	–
6.36 ± 0.14	440 nM	100 ± 3%	CC1(c2ccc3c(c2)OCCO3)NC(=O)N(CC(=O)c2ccc3c(c2)OCO3)C1=O (centres unmarked) [AC205]	–

The next lines start with the compound.

SMILES	pEC50 ± S.E.M. (CHO-GPR139 cells)	EC50 [2]	Emax ± S.E.M. [3]	also measured
O=C(O)C1CC=CCC1c1nnc(CSc2ccc(Cl)cc2)o1 (centres unmarked) [AC004]	–	–	–	EC50 [1]: 219 nM; Emax (calcium mobilization assay): 116%
Cc1ccc(C2(C)NC(=O)N(Cc3cn4cc(Cl)ccc4n3)C2=O)cc1 (centres unmarked) [AC10]	–	–	–	pEC50 ± S.E.M. [4]: 5.55 ± 0.03; EC50 [5]: 2830 nM; Emax ± S.E.M. [6]: 89 ± 5%
CC1(C2CC2)NC(=O)N(CC(=O)N2CCCSc3ccccc32)C1=O (centres unmarked) [AC11]	–	–	–	pEC50 ± S.E.M. [4]: 5.15 ± 0.12; EC50 [5]: 7070 nM; Emax ± S.E.M. [6]: 33 ± 3%
CC(C)OCCCNC(=O)NC(C)c1ccc2c(c1)OCO2 (centres unmarked) [AC12]	–	–	–	pEC50 ± S.E.M. [4]: 5.43 ± 0.19; EC50 [5]: 3740 nM; Emax ± S.E.M. [6]: 116 ± 8%
Cc1ccc(CNC(=O)NCC2CN(CC(C)C)CCO2)cc1 (centres unmarked) [AC13]	–	–	–	pEC50 ± S.E.M. [4]: 4.68 ± 0.13; EC50 [5]: 20700 nM; Emax ± S.E.M. [6]: 90 ± 5%
O=C(NCCCc1nc2ccccc2[nH]1)NC1CCSc2ccc(F)cc21 (centres unmarked) [AC14]	6.11 ± 0.12	780 nM	93 ± 3%	–
CN(CC(=O)NC1CC1)C(=O)COc1ccc2oc3c(c2c1)CCCC3 [AC16]	–	–	–	pEC50 ± S.E.M. [4]: 4.92 ± 0.12; EC50 [5]: 11900 nM; Emax ± S.E.M. [6]: 44 ± 4%
O=C(NCCc1cc(Cl)c2c(c1)OCCO2)NCc1cccnc1-n1ccnc1 [AC37]	–	–	–	pEC50 ± S.E.M. [4]: 5.55 ± 0.19; EC50 [5]: 2800 nM; Emax ± S.E.M. [6]: 105 ± 8%
CC(C)OCCCNC(=O)NC(C)c1cccc(Cl)c1 (centres unmarked) [AC76]	6.03 ± 0.10	940 nM	97 ± 4%	–
CC(C)OCCCNC(=O)NC(C)c1ccccc1Cl (centres unmarked) [AC77]	6.22 ± 0.17	600 nM	102 ± 4%	–
CC(C)COCCCNC(=O)NC(C)c1ccc(Br)cc1 (centres unmarked) [AC82]	6.54 ± 0.08	290 nM	102 ± 6%	–
CC(NC(=O)NCC(=O)NCC1CC1)c1ccc(F)cc1Cl (centres unmarked) [AC178]	6.55 ± 0.07	280 nM	97 ± 5%	–
CC(=O)Oc1cccc2c1C(=O)c1c(OC(C)=O)cc(C(=O)O)cc1C2=O [AC201]	–	–	–	EC50 (calcium mobilization assay, GPR139, read-out: EC50): 1800 nM; EC50 [1]: 1780 nM; Emax (calcium mobilization assay): 96%
